The text below walks through data of paper PMC10977697 (PLOS ONE, 2024).

Where no end group is shown, it is not given here.

The experiment has as its system CD16A. Description: Spot phage ELISA, CD16A. Type of experiment: binding, human. The note with it: spot phage ELISA signal-to-noise on CD16A. For orientation: An ELISA detects its analyte on a solid surface through an enzyme-linked reagent.
Take “GCQVDPWGHQMDCKQDSDCLAGCVCGPNGFC (disulfide (positions not given here)) [CD16A EETI-II 32]”: the S/N is 22.9.

“GCQWAQLSWDHCKQDSDCLAGCVCWQSPYCG (disulfide (positions not given here)) [CD16A EETI-II 35]” returned a S/N of 16.7. The result for “GCQWDPWGVQMNCKQDSDCLAGCVCGPNGFC (disulfide (positions not given here)) [CD16A EETI-II 34]” reads 19.6; that for “GCQWHEMTCKQDSDCLAGCVCWESPWCG (disulfide (positions not given here)) [CD16A EETI-II 36]”, 15.9; that for “GCQWIQQPCKQDSDCLAGCVCHESPWCG (disulfide (positions not given here)) [CD16A EETI-II 38]”, 17.4.

Turning to “GCQWIQVNCKQDSDCLAGCVCWVSPYCG (disulfide (positions not given here)) [CD16A EETI-II 37]”, the S/N was 5.8. Sequence “GCQWQVEECKQDSDCLAGCVCWHSPYCG (disulfide (positions not given here)) [CD16A EETI-II 41]” registered a S/N of 18.8. Regarding “GCQWVQMTCKQDSDCLAGCVCWHSPWCG (disulfide (positions not given here)) [CD16A EETI-II 42]”, the S/N worked out at 17.3.

Sequence “GCQYIETECKQDSDCLAGCVCWVSPWCG (disulfide (positions not given here)) [CD16A EETI-II 44]” had a S/N of 20.5.

Turning to “GCRGIDWWPCKQDSDCLTGCVCGPNGFCG (disulfide (positions not given here)) [CD16A EETI-II 24]”, the S/N is 11.1.

With “GCSGNAMNCKQDSDCLAGCVCDPWGKCD (disulfide (positions not given here)) [CD16A EETI-II 25]”, the S/N is 19.7. The result for “GCVETYVDCKQDSDCLAGCVCEPVQYCG (disulfide (positions not given here)) [CD16A EETI-II 12]” reads 18.5. Sequence “GCWDPWGPMSCKQDSDCLAGCVCGPNGFCG (disulfide (positions not given here)) [CD16A EETI-II 18]” yielded a S/N of 12.9. “GCWGFPFPMDCKQDSDCLAGCVCFLWDKCG (disulfide (positions not given here)) [CD16A EETI-II 23]” came in with a S/N of 19.5.

On to “GCWGPWGPEHCKQDSDCLAGCVCGPNGFCG (disulfide (positions not given here)) [CD16A EETI-II 26]”, for which the S/N is given as 18.3.

As to “GPTQSEGGQCGGIGYSGPTVCASGTTCQVLGPMWSFCLPGAS (disulfide (positions not given here)) [CD16A CBD 10]”, the S/N was 5.9.

“GPTQSEGGQCGGIGYSGPTVCASGTTCQVLGPSWSFCLPGAS (disulfide (positions not given here)) [CD16A CBD 11]”: the S/N worked out at 4.9. “GPTQSEGGSCGGIGYSGPTVCASGTTCQVLGPYISLCLPGAS (disulfide (positions not given here)) [CD16A CBD 2]” gave a S/N of 18.5.

As for “GPTQSEGGSCGGIGYSGPTVCASGTTCQVLNPYMSACLPGAS (disulfide (positions not given here)) [CD16A CBD 7]”, the S/N was found to be 14.8. On to “GPTQSHGGSCGGIGYSGPTVCASGTTCQVLNPYLSLCLPGAS (disulfide (positions not given here)) [CD16A CBD 3]”, for which the S/N is 17.5. Turning to “GPTQSHYGQCGGLGYFGQWFCSGTTCQMMSPYGSQCLPGAST (disulfide (positions not given here)) [CD16A CBD 9]”, the S/N is 8.3.

Regarding “GPTQSMGGSCGGIGYSGPTVCASGTTCQVLDPYISMCLPGAS (disulfide (positions not given here)) [CD16A CBD 5]”, the S/N is 16.5. Regarding “GPTQSPEGSCGGIGYSGPTVCASGTTCQVLNPYLSLCLPGAS (disulfide (positions not given here)) [CD16A CBD 8]”, the S/N stood at 14.2.
